Publication PMC9356275, “A quantitative high-throughput screen identifies compounds that lower expression of the SCA2-and ALS-associated gene ATXN2” (The Journal of Biological Chemistry, 2022)
Counter-ions that a name gives are not always drawn. Like-named read-outs stand apart in the source and are kept apart here.

Experiments:
Assay type in all cases: cell-based, human
[1] = tested on: H2 and S1 cells; test: Paired MTT viability assay, average of H2 and S1 cells (1 and 10 uM); set-up: H2&S1 ave MTT 1uM / H2&S1 ave MTT 10uM: unit not given here; details: for viability at 1 µM / viability at 10 µM: Homo sapiens
Text: (§1) Supplement mmc2.xlsx, sheet "43 annotated compounds"

[2] = tested on: ATXN2-luc; test: MSSR pilot screen: ATXN2-luc luciferase assay (Bright-Glo) in H2 cells, single 10 μM dose; details: for SD from mean (ATXN2-luc, Z-score): H2 cells, single dose (title: 10 μM compound), overnight; for ¦Score/1SD¦: absolute score divided by 1SD (0.891 or 0.9)
[3] = tested on: ATXN2-luc; test: MSSR hit retest: ATXN2-luc luciferase assay, average of H2 and S1 cells (1 and 10 uM); set-up: H2&S1 ave luc 1uM / H2&S1 ave luc 10uM: scale not given here; details: for H2&S1 ave luc 10uM / activity at 10 µM: head line r3 10uM; for H2&S1 ave luc 10uM: head line r4 20 uM compound; for activity at 1 µM / activity / activity at 10 µM: Homo sapiens; for activity at 1 µM: read-out: H2&S1 ave luc 1uM; for activity / activity at 10 µM: read-out: H2&S1 ave luc 10uM
Text: as §1

[4] = tested on: ATXN2-luc; test: MSSR hit retest / multiconcentration testing: ATXN2-luc luciferase assay in H2 cells (1 and 10 μM); details: for H2&S1 ave luc 1uM: 1 uM compound; for H2&S1 ave luc 10uM: 10 uM compound
[5] = tested on: ATXN2-luc; test: NCATS qHTS (LOPAC pilot, primary and confirmation): ATXN2-luc in S2 cells, 1536-well, Steady-Glo; details: LOPAC library screening optimization; for AC50: Homo sapiens
Summary of the method: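 […] S2 cells expressing ATXN2-luc in phenol red–free DMEM screened in 1536-well qHTS format. Luciferase read by Steady-Glo luminescence after 5 min at room temperature (2 s exposure), multiplexed with CellTiter-Fluor viability.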

[6] = pilot screen at 10 µM compound, H2 cells expressing ATXN2-luc
[7] = 1 uM compound, average of H2 and S1 cells
[8] = luciferase, average of H2 and S1 cells expressing ATXN2-luc, rescreen
[9] = read-out: H2&S1 ave MTT 1uM, 1 uM compound
[10] = read-out: H2&S1 ave MTT 10uM, 10 uM compound
[11] = pilot screen, H2 cells expressing ATXN2-luc, single dose printed as 10 μM compound
[12] = luciferase assay, average of H2 and S1 cells (both ATXN2-luc), rescreen from plated libraries
[13] = 1 uM compound, read-out: H2&S1 ave MTT 1uM
[14] = 10 uM compound, read-out: H2&S1 ave MTT 10uM

Compound | H2&S1 ave MTT 1uM ([1]; 1 uM compound) | H2&S1 ave MTT 10uM ([1]; 10 uM compound) | SD from mean (ATXN2-luc, Z-score) [2] [SD] | SD from mean (pilot screen) ([2]; pilot screen) [SD] | SD from mean (pilot screen) [2, 6] | ¦Score/1SD¦ ([2]; pilot screen) | H2&S1 ave luc 1uM [3, 7] | H2&S1 ave luc 1uM [4, 8] | H2&S1 ave luc 10uM [4, 8] | viability at 1 µM [1, 9] [%] | viability at 10 µM [1, 10] [%] | SD from mean (pilot screen) [2, 11] | activity at 1 µM [3] [%] | activity [3] [%] | H2&S1 ave luc 1uM [4, 12] | other results
C1CCC(N=C(NC23CC4CC(CC(C4)C2)C3)N2CCOCC2)CC1.Cl [U-37883A] | 105.463 | 56.7572 | -4.965 | -4.965 | -4.965 | 5.57 | 94 | 94 | 17 |  |  |  |  |  |  | H2&S1 ave luc 10uM ([3]; average of H2 and S1 cells): 17
C[C@H]1O[C@@H](O[C@H]2CC[C@]3(C=O)[C@H]4CC[C@]5(C)[C@@H](C6=CC(=O)OC6)CC[C@]5(O)[C@@H]4CC[C@]3(O)C2)C[C@H](O)[C@@H]1O [Helveticoside] |  |  | -2.733 | -2.733 |  | 3.07 |  |  |  | 99 | 37.1 | -2.733 | 118 | 41 |  | AC50 ([5]; logarithm of AC50 (negative values), read-out: Log AC50 (converted)): 3.55 µM; AC50 ([5]; read-out: AC50): 3.55 µM; Efficacy ([5]; curve-fit parameter): -86.9163; Inf Activity ([5]; curve-fit parameter): -84.4727
CC(C)c1cc(/C=C(\C#N)C(=O)NCCCc2ccccc2)cc(C(C)C)c1O [SU1498] | 86.0811 | 61.708 | -4.885 | -4.885 | -4.885 | 5.48 | 22 | 22 | 15 |  |  |  |  |  |  | H2&S1 ave luc 10uM ([3]; average of H2 and S1 cells): 15
CNC1CC(c2ccc(Cl)c(Cl)c2)c2ccccc21 (stereo not shown) [Indatraline] |  |  |  | -3.071 |  | 3.41 |  |  |  | 117 | 13.5 | -3.071 | 107 | 5.53 | 107 | 
COc1cccc(C2(O)CCCCC2CN(C)C)c1 (stereo not shown) [Tramadol] |  |  | -3.415 | -3.415 |  | 3.79 |  |  |  | 128 | 113 | -3.415 | 107 | 134 | 107 | H2&S1 ave luc 10uM [4, 12]: 134
STROPH[…] LACTONE ACETATE | 43.5914 | 36.6277 | -3.855 | -3.855 | -3.855 | 4.28 | 37 | 37 | 20 |  |  |  |  |  |  | 
[H]/N=C(/NCCCCC)N/N=C/c1c[nH]c2ccc(OC)cc12 [TEGASEROD MALEATE] |  |  | -3.606 | -3.606 |  | 4.01 |  |  |  |  |  | -3.606 |  |  | 105 | viability at 1 µM [1, 13]: 106%; viability at 10 µM [1, 14]: 14.2%; activity at 1 µM [3, 7]: 105%; activity at 10 µM ([3]; average of H2 and S1 cells): 8%
CC(N/C(=N\C#N)Nc1ccncc1)C(C)(C)C (stereo not shown) |  |  | -4.875 | -4.875 | -4.875 | 5.47 |  | 117 |  |  |  |  |  |  |  | viability at 1 µM [1, 13]: 107%; viability at 10 µM [1, 14]: 51.5%; activity at 1 µM [3, 7]: 117%; activity at 10 µM ([3]; average of H2 and S1 cells): 17%
CO[C@H]1[C@H](O)[C@H](O[C@H]2CC[C@@]3(C=O)[C@H](CC[C@@H]4[C@@H]3CC[C@]3(C)[C@@H](C5=CC(=O)OC5)CC[C@]43O)C2)O[C@@H](C)[C@@H]1O [PERUVOSIDE] |  |  | -4.038 | -4.038 | -4.038 | 4.49 |  |  |  | 47.5 | 60 |  | 15 | 12 |  | 
